“And” between values parts separate entries of the source, which are not always exact repeats. Equal values may be shown once.
Tested on: 485368-065-R4-J2-PDC spheroids with HUVEC/MSC, viability
Assay: Anticancer human tumor 485368-065-R4-J2-PDC patient-derived pancreatic carcinoma cell line growth inhibition [CLK]
Conditions: for viability, T/C: stronger effect = lower value
Outline: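 Patient-derived tumor cells grown as complex spheroids with HUVEC endothelial cells and mesenchymal stem cells, treated with drug combinations. Concentrations descend in half-log steps from near clinical Cmax, or from 10 microM if Cmax unknown.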

[1] = curve of first compound, second compound 0.0316 µM
[2] = curve of first compound, second compound 0.1 µM
[3] = curve of first compound, second compound 0.316 µM
[4] = curve of first compound, second compound 1 µM
[5] = curve of first compound, second compound 3.16 µM
[6] = curve of first compound, second compound 10 µM
[7] = second compound 0.0316 µM, first compound 0.0316 µM
[8] = second compound 0.0316 µM, first compound 0.1 µM
[9] = second compound 0.0316 µM, first compound 0.316 µM
[10] = second compound 0.0316 µM, first compound 1 µM
[11] = second compound 0.0316 µM, first compound 3.16 µM
[12] = second compound 0.0316 µM, first compound 10 µM
[13] = second compound 0.1 µM, first compound 0.0316 µM
[14] = second compound 0.1 µM, first compound 0.1 µM
[15] = second compound 0.1 µM, first compound 0.316 µM
[16] = second compound 0.1 µM, first compound 1 µM
[17] = second compound 0.1 µM, first compound 3.16 µM
[18] = second compound 0.1 µM, first compound 10 µM
[19] = second compound 0.316 µM, first compound 0.0316 µM
[20] = second compound 0.316 µM, first compound 0.1 µM
[21] = second compound 0.316 µM, first compound 0.316 µM
[22] = second compound 0.316 µM, first compound 1 µM
[23] = second compound 0.316 µM, first compound 3.16 µM
[24] = second compound 0.316 µM, first compound 10 µM
[25] = second compound 1 µM, first compound 0.0316 µM
[26] = second compound 1 µM, first compound 0.1 µM
[27] = second compound 1 µM, first compound 0.316 µM
[28] = second compound 1 µM, first compound 1 µM
[29] = second compound 1 µM, first compound 3.16 µM
[30] = second compound 1 µM, first compound 10 µM
[31] = second compound 3.16 µM, first compound 0.0316 µM
[32] = second compound 3.16 µM, first compound 0.1 µM
[33] = second compound 3.16 µM, first compound 0.316 µM
[34] = second compound 3.16 µM, first compound 1 µM
[35] = second compound 3.16 µM, first compound 3.16 µM
[36] = second compound 3.16 µM, first compound 10 µM
[37] = second compound 10 µM, first compound 0.0316 µM
[38] = second compound 10 µM, first compound 0.1 µM
[39] = second compound 10 µM, first compound 0.316 µM
[40] = second compound 10 µM, first compound 1 µM
[41] = second compound 10 µM, first compound 3.16 µM
[42] = second compound 10 µM, first compound 10 µM
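Also: spheroids exposed to compounds for seven days.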
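For viability, T/C in this document: 100% = DMSO vehicle control wells.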

For COc1cccc2c1C(=O)c1c(O)c3c(c(O)c1C2=O)CC(O)(C(=O)CO)CC3OC1CC(N)C(O)C(C)O1 (stereo not drawn) + CN1CCN(c2cc(C(=O)Nc3cc4cc(-c5cnn(C)c5)ccc4cn3)ccn2)CC1, the IC50 [1] was 340 nM, the IC50 [2] was 215 nM and the IC50 [3] was 86.9 nM. The IC50 [4] was < 31.6 nM, the IC50 [5] was < 31.6 nM and the IC50 [6] was < 31.6 nM. For the same compound, the viability, T/C [7] was 97.5%, the viability, T/C [8] was 91.9% and the viability, T/C [9] was 51.1%. It also gave a viability, T/C [10] of 22.8%, a viability, T/C [11] of 6.06% and a viability, T/C [12] of 20.1%. For the same compound, the viability, T/C [13] was 95.9%, the viability, T/C [14] was 81.3% and the viability, T/C [15] was 34.5%. For the same compound, the viability, T/C [16] was 13.1%, the viability, T/C [17] was 5.58% and the viability, T/C [18] was 20.2%. It also gave a viability, T/C [19] of 69.8%, a viability, T/C [20] of 47.2% and a viability, T/C [21] of 12.7%. The viability, T/C [22] was 6.03%, the viability, T/C [23] was 8.55% and the viability, T/C [24] was 26.6%. The viability, T/C [25] was 0.88%, the viability, T/C [26] was 0.73% and the viability, T/C [27] was 1.56%. The viability, T/C [28] was 5.86%, the viability, T/C [29] was 12.6% and the viability, T/C [30] was 28.8%. The viability, T/C [31] was 1.17%, the viability, T/C [32] was 1.22% and the viability, T/C [33] was 2.37%. It also gave a viability, T/C [34] of 6.61%, a viability, T/C [35] of 14.8% and a viability, T/C [36] of 30.9%. For the same compound, the viability, T/C [37] was 1.73%, the viability, T/C [38] was 1.28% and the viability, T/C [39] was 2.28%. It also gave a viability, T/C [40] of 8.69%, a viability, T/C [41] of 14.6% and a viability, T/C [42] of 27.2%.
With O=C(c1cc(Cc2n[nH]c(=O)c3ccccc23)ccc1F)N1CCN(C(=O)C2CC2)CC1 the viability, T/C (compound 0.0316 µM) was 100% and 107%, the viability, T/C (compound 0.1 µM) was 97.7% and 89.2% and the viability, T/C (compound 0.316 µM) was 88.7% and 107%. The viability, T/C (compound 1 µM) was 98.2% and 104%, the viability, T/C (compound 3.16 µM) was 98.8% and 108% and the viability, T/C (compound 10 µM) was 89.5% and 94.8%. The IC50 (curve of compound) was > 10000 nM.
In the case of C=CC(=O)N1CCN(c2nc(=O)n(-c3c(C)ccnc3C(C)C)c3nc(-c4c(O)cccc4F)c(F)cc23)C(C)C1 (stereo not drawn) + CN1CCN(c2cc(C(=O)Nc3cc4cc(-c5cnn(C)c5)ccc4cn3)ccn2)CC1, the IC50 [1] is reported as > 10000 nM, the IC50 [2] is reported as > 10000 nM and the IC50 [3] is reported as > 10000 nM. The IC50 [4] was < 31.6 nM, the IC50 [5] was < 31.6 nM and the IC50 [6] was < 31.6 nM. The viability, T/C [7] was 107%, the viability, T/C [8] was 106% and the viability, T/C [9] was 99.6%. For the same compound, the viability, T/C [10] was 104%, the viability, T/C [11] was 99.5% and the viability, T/C [12] was 106%. For the same compound, the viability, T/C [13] was 96.7%, the viability, T/C [14] was 121% and the viability, T/C [15] was 107%. The viability, T/C [16] was 108%, the viability, T/C [17] was 105% and the viability, T/C [18] was 102%. It also gave a viability, T/C [19] of 83.3%, a viability, T/C [20] of 86.6% and a viability, T/C [21] of 94.9%. The viability, T/C [22] was 94.1%, the viability, T/C [23] was 88.9% and the viability, T/C [24] was 78.7%. The viability, T/C [25] was 1.22%, the viability, T/C [26] was 1.11% and the viability, T/C [27] was 1.36%. The viability, T/C [28] was 1.9%, the viability, T/C [29] was 3.44% and the viability, T/C [30] was 3.58%. For the same compound, the viability, T/C [31] was 3.01%, the viability, T/C [32] was 2.65% and the viability, T/C [33] was 2.4%. It also gave a viability, T/C [34] of 2.51%, a viability, T/C [35] of 4.69% and a viability, T/C [36] of 10.6%. For the same compound, the viability, T/C [37] was 1.58%, the viability, T/C [38] was 2.84% and the viability, T/C [39] was 2.36%. The viability, T/C [40] was 3.44%, the viability, T/C [41] was 4% and the viability, T/C [42] was 8.87%.
In the case of C#Cc1c(F)ccc2cc(O)cc(-c3ncc4c(N5CC6CCC(C5)N6)nc(OCC56CCCN5CC(F)C6)nc4c3F)c12 (stereo not drawn), the viability, T/C (compound 0.0316 µM) is reported as 99.6% and 90.9%, the viability, T/C (compound 0.1 µM) is reported as 97.5% and 111% and the viability, T/C (compound 0.316 µM) is reported as 102% and 103%. For the same compound, the viability, T/C (compound 1 µM) was 98.2% and 102%, the viability, T/C (compound 3.16 µM) was 117% and 107% and the viability, T/C (compound 10 µM) was 114% and 106%. For the same compound, the IC50 (curve of compound) was > 10000 nM.

Source: PubChem BioAssay AID2060617 (Molecular Pharmacology Branch, DTP, NCI, 2025)
